Source: patent US8592454B2, “Nitrogen-containing heterocyclic compound and use of same” (Takeda Pharmaceutical Company Limited, priority 2008, dated 2013)
Counter-ions that a name gives are not always drawn. Like-named read-outs stand apart in the source and are kept apart here.

Tests used:
[1] = biological target: Human NK2 (hNK2) receptor (Homo sapiens (Human), UniProt P21452); experiment: Human NK2 receptor binding assay: radioligand ([125I]-NK-A) binding inhibitory activity using membrane fraction of CHO cell expressing human NK2 (hNK2) receptor; conditions: hNK2 receptor binding inhibition
Sequence of Human NK2 (hNK2) receptor (P21452 whole entry): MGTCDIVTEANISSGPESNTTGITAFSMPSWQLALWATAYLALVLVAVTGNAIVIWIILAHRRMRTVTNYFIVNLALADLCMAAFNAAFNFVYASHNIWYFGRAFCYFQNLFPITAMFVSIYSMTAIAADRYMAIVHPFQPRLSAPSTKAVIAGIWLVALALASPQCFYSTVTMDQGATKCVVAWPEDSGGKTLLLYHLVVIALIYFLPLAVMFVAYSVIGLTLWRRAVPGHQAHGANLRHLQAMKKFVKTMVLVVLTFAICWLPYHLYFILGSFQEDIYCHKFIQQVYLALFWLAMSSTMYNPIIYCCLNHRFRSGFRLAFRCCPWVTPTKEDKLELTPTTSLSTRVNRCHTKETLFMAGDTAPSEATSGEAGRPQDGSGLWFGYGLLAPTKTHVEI
Description: Human NK2 Receptor Binding Assay

Human NK1 Receptor = Human NK1 Receptor (Homo sapiens (Human), UniProt P25103); experiment: Human NK1 receptor binding assay: radioligand (125I-Bolton-Hunter-SP) binding inhibitory activity using receptor from human lymphoblast cells (IM-9); conditions: hNK1 receptor binding inhibition
Sequence of Human NK1 Receptor (P25103 whole entry): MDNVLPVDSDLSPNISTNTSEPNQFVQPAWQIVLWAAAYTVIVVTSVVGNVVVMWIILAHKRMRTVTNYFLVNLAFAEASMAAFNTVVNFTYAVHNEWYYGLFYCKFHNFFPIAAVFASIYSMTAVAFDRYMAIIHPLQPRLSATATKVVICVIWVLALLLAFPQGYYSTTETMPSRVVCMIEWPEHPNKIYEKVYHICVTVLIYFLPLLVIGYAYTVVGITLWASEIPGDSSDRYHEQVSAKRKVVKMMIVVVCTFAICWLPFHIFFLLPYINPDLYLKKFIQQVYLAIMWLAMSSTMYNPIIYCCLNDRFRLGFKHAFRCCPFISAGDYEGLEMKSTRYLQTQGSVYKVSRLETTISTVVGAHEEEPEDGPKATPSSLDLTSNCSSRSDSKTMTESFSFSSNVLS

[2] = biological target: Human NK3 (hNK3) receptor (Homo sapiens (Human), UniProt P29371)
Sequence of Human NK3 (hNK3) receptor (P29371 whole entry): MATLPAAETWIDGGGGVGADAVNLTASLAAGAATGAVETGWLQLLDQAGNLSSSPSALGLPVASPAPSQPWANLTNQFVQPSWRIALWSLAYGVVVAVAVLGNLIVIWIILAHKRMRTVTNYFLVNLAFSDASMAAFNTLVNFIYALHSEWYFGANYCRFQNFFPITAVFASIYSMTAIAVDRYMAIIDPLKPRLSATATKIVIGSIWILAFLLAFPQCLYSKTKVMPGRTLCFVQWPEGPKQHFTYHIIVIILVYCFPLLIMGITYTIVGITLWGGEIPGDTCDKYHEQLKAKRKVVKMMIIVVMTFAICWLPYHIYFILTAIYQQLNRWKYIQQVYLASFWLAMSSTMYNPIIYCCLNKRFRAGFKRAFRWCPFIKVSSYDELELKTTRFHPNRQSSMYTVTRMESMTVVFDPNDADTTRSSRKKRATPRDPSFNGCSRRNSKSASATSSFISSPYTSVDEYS
Description: Human NK3 Receptor Binding Assay
CHO cells expressing hNK3 receptor were cultured in a MEMα medium (Nikken Seibutsu Igaku Kenkyusho, K.K.) containing 100 U/mL penicillin, 100 μg/mL streptomycin and 10% inactivated dialyzed serum. The medium was removed, the adhered cells were washed with PBS, and PBS containing 5 mM EDTA was added to detach the cells from the flask. The cells were collected by centrifugation, suspended in suspension buffer A (50 mM Tris-HCl (pH 7.4) containing 120 mM NaCl, 5 mM KCl, 2 μg/mL chymostatin, 40 μg/mL bacitracin, 40 μg/ml APMSF, 1 mM EDTA), disrupted by a Polytron homogenizer (Kinematika), and centrifuged at 800×g for 10 min. The supernatant was recovered and ultracentrifuged at 100,000×g for 25 min. The precipitation fraction was suspended in suspension buffer B (50 mM Tris-HCl (pH 7.4), 0.02% bovine serum albumin, 2 μg/ml chymostatin, 40 μg/ml bacitracin, 40 μg/mL APMSF, 3 mM MnCl2), and cryopreserved (−80° C.) as a receptor reference standard.
Measurement buffer (50 mM Tris-HCl (pH 7.4), 0.02% bovine serum albumin, 2 μg/ml chymostatin, 40 μg/mL bacitracin, 40 μg/mL APMSF, 3 mM MnCl2) (50 μL) was added to a 96-well microassay plate. The membrane reference standard (300 μg/mL) suspended in a measurement buffer was added by 50 μL. […] Furthermore, 400 μM [^125I]-NK-B (Neurokinin-B (N-Me-Phe^7), [^125I]His^3-) (PerkinElmer) solution was added to each well by 50 μL.
After reaction at 25° C. for 30 min, the reaction was quenched using a cell harvester (PerkinElmer) by rapid filtration on a GF/C filter plate, and the cells were washed 5 times with 250 μL of a 50 mM Tris-HCl buffer (pH 7.4) containing 0.02% bovine serum albumin. The GF/C filter plate was dried, MicroScinti-0 (Perkin Elmer) was added by 20 μL, and the radioactivity was measured on a TopCount (PerkinElmer). The GF/C filter plate used had been immersed in 0.3% polyethyleneimine for one day.
The specific binding level is shown by a value obtained by subtracting non-specific binding level from the total binding level. The binding inhibitory activity of the test compound is shown by a ratio of the value obtained by subtracting the measurement value with addition of a test compound from the total binding level, to the value of the specific binding level.

[3] = read-out: IC50 value hNK3, hNK3 receptor binding inhibition

Row | SMILES | IC50 [1] | IC50 (Human NK1 Receptor) | IC50 [2, 3] | IC50 [2]
1 | CC(=O)N1CCC(C(=O)N2C[C@@H](N(C)C(=O)N(C)c3cc(C(F)(F)F)cc(C(F)(F)F)c3)[C@H](c3ccc(Cl)c(Cl)c3)C2)CC1 (racemic) [Example 66, 1-[(3S*, 4R*)-1-[(1-acetylpiperidin-4-yl)carbonyl]-4-(3,4-dichlorophenyl)pyrrolidin-3-yl]-3-[3,5-bis(trifluoromethyl)phenyl]-1,3-dimethylurea] | 2 nM | 0.075 nM | – | –
2 | CC(=O)N1CCC(C(=O)N2CC[C@@H](N(C)C(=O)N(C)c3cc(C(F)(F)F)cc(C(F)(F)F)c3)[C@H](c3ccc(F)cc3)C2)CC1 (relative stereo) [Example 4, 1-[(3R*,4R*)-1-[(1-acetylpiperidin-4-yl)carbonyl]-3-(4-fluorophenyl)piperidin-4-yl]-3-[3,5-bis(trifluoromethyl)phenyl]-1,3-dimethylurea] | 4200 nM | 0.11 nM | – | –
3 | CC(=O)N1CCC(C(=O)N2CC[C@@H](N(C)C(=O)N(C)c3cc(C(F)(F)F)cc(C(F)(F)F)c3)[C@H](c3ccc(Cl)c(Cl)c3)C2)CC1 [Example 25, 1-[(3R,4R)-1-[(1-acetylpiperidin-4-yl)carbonyl]-3-(3,4-dichlorophenyl)piperidin-4-yl]-3-[3,5-bis(trifluoromethyl)phenyl]-1,3-dimethylurea] | 7.1 nM | 0.031 nM | 1400 nM | –
4 | CC(=O)N1CCC(C(=O)N2CC[C@@H](N(C)C(=O)Nc3ccc(Cl)cc3)[C@H](c3ccc(Cl)c(Cl)c3)C2)CC1 [Example 61, 1-[(3R,4R)-1-[(1-acetylpiperidin-4-yl)carbonyl]-3-(3,4-dichlorophenyl)piperidin-4-yl]-3-(4-chlorophenyl)-1-methylurea] | > 100 nM | 290 nM | 99 nM | –
5 | CC(=O)N1CCC(C(=O)N2C[C@@H](N(C)C(=O)N(C)c3cc(C(F)(F)F)cc(C(F)(F)F)c3)[C@H](c3ccc(F)cc3)C2)CC1 [Example 71b] | 7.1 nM | 0.027 nM | – | –
6 | CN(C(=O)N(C)[C@@H]1CCN(C2CCS(=O)(=O)CC2)C[C@H]1c1ccc(F)cc1)c1cc(C(F)(F)F)cc(C(F)(F)F)c1 [Example 104, 1-[3,5-bis(trifluoromethyl)phenyl]-3-[(3R,4R)-1-(1,1-dioxidetetrahydro-2H-thiopyran-4-yl)-3-(4-fluorophenyl)piperidin-4-yl]-1,3-dimethylurea monohydrochloride] | 100 nM | 0.073 nM | – | –
7 | CC(=O)N1CCC(C(=O)N2C[C@@H](N(C)C(=O)N(C)c3cc(Cl)cc(Cl)c3)[C@H](c3ccc(F)cc3)C2)CC1 [Example 176, 1-[(3S,4R)-1-[(1-acetylpiperidin-4-yl)carbonyl]-4-(4-fluorophenyl)pyrrolidin-3-yl]-3-(3,5-dichlorophenyl)-1,3-dimethylurea] | 12 nM | 0.029 nM | 600 nM | –
8 | CC(=O)N1CCC(C(=O)N2C[C@@H](N(C)C(=O)N(C)c3cc(C(F)(F)F)cc(C(F)(F)F)c3)[C@H](c3ccc(F)cn3)C2)CC1 [Example 192, 1-[(3S,4R)-1-[(1-acetylpiperidin-4-yl)carbonyl]-4-(5-fluoropyridin-2-yl)pyrrolidin-3-yl]-3-[3,5-bis(trifluoromethyl)phenyl]-1,3-dimethylurea] | 120 nM | 0.032 nM | – | 4400 nM
9 | COC(=O)N[C@H]1CC[C@H](C(=O)N2C[C@@H](N(C)C(=O)N(C)c3cc(C(F)(F)F)cc(C(F)(F)F)c3)[C@H](c3ccc(F)cc3)C2)CC1 [Example 233, methyl (trans-4-{[(3S,4R)-3-[{[3,5-bis(trifluoromethyl)phenyl](methyl)carbamoyl}(methyl)amino]-4-(4-fluorophenyl)pyrrolidin-1-yl]carbonyl}cyclohexyl)carbamate] | 42 nM | 0.049 nM | 1100 nM | –
10 | CN(C(=O)N(C)[C@@H]1CN(C(=O)C2CCN(C(=O)C(C)(C)O)CC2)C[C@H]1c1ccc(F)cc1)c1cc(C(F)(F)F)cc(C(F)(F)F)c1 [Example 308, 1-[3,5-bis(trifluoromethyl)phenyl]-3-[(3S,4R)-4-(4-fluorophenyl)-1-{[1-(2-hydroxy-2-methylpropanoyl)piperidin-4-yl]carbonyl}pyrrolidin-3-yl]-1,3-dimethylurea] | 2.4 nM | 0.07 nM | – | –
11 | CN(C(=O)N(C)[C@@H]1CN(C(=O)NC2CCOCC2)C[C@H]1c1ccc(F)cc1)c1cc(C(F)(F)F)cc(C(F)(F)F)c1 [Example 378, (3S,4R)-3-[{[3,5-bis(trifluoromethyl)phenyl](methyl)carbamoyl}(methyl)amino]-4-(4-fluorophenyl)-N-(tetrahydro-2H-pyran-4-yl)pyrrolidine-1-carboxamide] | 59 nM | 0.039 nM | 650 nM | –
12 | CN(C(=O)N(C)[C@@H]1CN(C(=O)N2CCN(S(C)(=O)=O)CC2)C[C@H]1c1ccc(F)cc1)c1cc(Cl)cc(Cl)c1 [Example 420, 1-(3,5-dichlorophenyl)-3-[(3S,4R)-4-(4-fluorophenyl)-1-{[4-(methylsulfonyl)piperazin-1-yl]carbonyl}pyrrolidin-3-yl]-1,3-dimethylurea] | 77 nM | 0.03 nM | – | 120 nM
